Data reported in US20260083725A1, “SIGMARI LIGAND FOR THE TREATMENT OF PANCREATIC CANCER” (INSTITUT NATIONAL DE LA SANTÉ ET DE LA RECHERCHE MÉDICALE, priority 2022, published 2026).

Experiments:
SK2/AKT interaction = assay: In situ proximity ligation assay of SK2/AKT interaction in PANC-1 cells; type: cell-based, human; settings: PANC-1 Sh RD cells, overnight CAF-CM + 1(S) ligand 1 μM; FIG. 1B
Protocol: The DuoLink in situ Proximity Ligation Assay (PLA) (Olink Bioscience, Uppsala, Sweden) was used to detect the interaction between SK2 and different candidates' partner (C-myc Sig-1R, EGFR, AKT, β1 integrin). PANC-1 cells expressing a stable Sh R D, Sh Sig-1R, or Sh SK2 were seeded on poly-Lysine (40 μg/mL) coated microscope slides. Cells were fixed with PFA 4% and permeabilized with triton X100 (0.05%). Cells were immunolabeled with primary antibodies: anti SK2 (1:100) and anti C-myc, (1:100) or anti EGFR (1:100), or anti AKT (1:100), or anti β1 integrin (1:100) for 1 h at 37° C. The secondary antibodies with attached PLA probes were supplied in the Duolink kit. Cellular PLA images were captured using an inverted Zeiss Axio Observer Z1 microscope (Zeiss, Jena, Germany). 6 to 10 fields have been imaged and quantified per conditions.

KICpdx1 mice = assay: Endogenous PDAC mice model (KICpdx1 mice) treated with 1(S) ligand; type: in vivo, mouse; settings: for median survival: once a week, non-treated 67 days
Protocol: Pdx1-Cre, Ink4afl/fl LSL-KrasG12D (KICpdx1) mice were obtained by crossing of the following strains: Pdx1-Cre, Ink4afl/fl, and LSL-KrasG12D mice provided by D. Melton (Harvard Stem Cell Institute, Cambridge, Massachusetts, USA), R. Depinho (Dana-Farber Cancer Institute, Boston, Massachusetts, USA), and T. Jacks (David H. Koch Institute for Integrative Cancer Research, Cambridge, Massachusetts, USA), respectively. PDAC-bearing 5- and 8-week-old mice were treated once a week with vehicle or 1(S) ligand (0.1 mg/injection/mouse) until experimental endpoint mice reaching sacrificing time or mice reaching physiological endpoints (cachexia criteria, limited movement, drinking or feeding of the mice). No exclusion has to be reported in all experiments as no mice reached a criteria of exclusion such as a fight-related wound or the development of ear inflammation.. To study final tumor volume, mice were euthanized at 9 weeks and tumors were weighted and fixed in 4% (wt/vol) formaldehyde for immunochemistry. For survival analyses, mice were euthanized when they developed ethical clinical end points defined by our institutional guidelines and European animal protection law. For all experiments, sample size was predicted following a Mann-Whitney statistical approach involving power calculation of 0.8 with a FDR of 0.05. A minimum number of 7 mice per group was predicted as able to reach significance. Bonferroni post-hoc test was used for multiples test comparison (two variance with time and/or treatment). Experimental technicians were proceeding with injections while personnel related to mice follow-up worked in a blinded approach. All animal care and experimental procedures were performed in agreement with the Animal Ethics Committee of Marseille then the French ministry of research and innovation under the reference Apafis#16998-2018100814458519.

Panc-1 cells = assay: Proliferation and viability assays on Panc-1 cells; type: cell-based; settings: control Panc-1 cells or cells silenced for Sig1R or SK2
SK2 channel = assay: Whole cell patch clamp recording of SK2 current in pancreatic cancer cells; type: cell-based, human; settings: for CAF-CM-induced SK2 current: PANC-1 cells incubated with CAF-CM plus inhibitor or antibody
Protocol: Electrophysiological recordings in HEK293-T, PANC-1 and MiaPaCa-2 cells were performed in the whole cell configuration of the patch clamp technique at room temperature. Cells were bathed in a solution containing: 5 mM KCl, 145 mM NaCl, 1 mM MgCl2, 2 mM CaCl2, and 10 mM Hepes (pH adjusted to 7.4 with HCl, 300 mosm/L). Soft glass patch electrodes (Brand, Wertheim, Germany) were made on a horizontal pipette puller (P-97, Sutter Instrument Co., Novato, CA) to achieve a final resistance ranging from 3 to 5 MΩ. The internal solution was: 145 mM KCl, 1 mM MgCl2, 0.87 mM CaCl2, 1 mM EGTA, 10 mM Hepes, 1 mM ATP (pH adjusted to 7.2 with KOH, 308 mosm/L, pCa 6). Recordings were performed at room temperature in the voltage clamp mode using an PC-controlled EPC 9 patch-clamp amplifier (HEKA, Lambrecht/Pfalz, Germany). Currents were acquired and analyzed with Pulse and Pulsefit software (HEKA). Signal were filtered at 10 kHz and digitalized at 20 kHz. Currents were elicited by voltage ramps protocols (from −120 to +60 mV). Current density was measured at 0 mV. For the electrophysiological study of the SK2 mutations, HEK293-T were transfected with the different constructions and the HA-myr-AKT using calcium phosphate and recorded 24 h after transfection.

[1] = KICpdx1 mice treated from 5 weeks, end-point at 9 weeks, versus untreated

How did the “association of SK2 and AKT (PLA, interactions per cell)” value (SK2/AKT interaction) turn out when `CN(CCCN1C(=O)[C@@H]2Cc3ccccc3CN2C1=O)Cc1ccccc1` [Compound 1(S)] was run?
The value was “prevented”.

And the tumor progression (KICpdx1 mice; KICpdx1 mice treated from 5 weeks old, before the onset of PDAC)?
The tumor progression was “significantly delayed”.

And the median survival (KICpdx1 mice; KICpdx1 mice treated from 5 weeks old, 0.1 mg/injection/mouse, FIG. 1D)?
The median survival was 84 days.

And the “histological examination of pancreas” value (KICpdx1 mice; KICpdx1 mice treated from 5 weeks, end-point at 9 weeks)?
Its value is “almost lack of malignant lesions”.

And the “ECM density (trichrome labelling, desmoplasia)” value (KICpdx1 mice; [1])?
The value was “lower”.

And the “number of EMT-reprogramming epithelial cells (Pan-CK/αSMA co-staining)” value (KICpdx1 mice; [1])?
Its value is “lower”.

What about the “reduction of pancreas weight compared to non-treated” value (KICpdx1 mice; KICpdx1 mice treated from 5 weeks, end-point at 9 weeks, FIG. 1F) of the same compound?
The value was 69%.

And the pancreas weight (KICpdx1 mice; KICpdx1 mice treated from 5 weeks, end-point at 9 weeks, non-treated 1.44 g (±0.42), FIG. 1F)?
The pancreas weight was 0.45 g.

And the median survival (KICpdx1 mice; KICpdx1 mice treated from 8 weeks of age (PDAC already developed), FIG. 1H)?
The median survival was 77 days.

And the metastasis onset (KICpdx1 mice; mouse models of PDAC treated with 1(S))?
The metastasis onset was “reduced”.

And the “effect on proliferation and viability” value (Panc-1 cells)?
The value was “does not exhibit any effect”.

What about the “CAF-CM mediated activation of SK2 (ISK2 current)” value (SK2 channel; PANC-1 cells exposed overnight to CAF-CM + 1(S) ligand 1 μM, patch-clamp, FIG. 1A) of the same compound?
Its value is “abolished”.

With `CCN(CC)CCCCN1c2ccccc2Oc2ccc(Cl)cc21` [DEBC, reference compound] as the compound, how does the “CAF-CM-induced SK2 current” value (SK2 channel) read?
Its value is “suppressed”.

`C#Cc1cccc(Nc2ncnc3cc(OCCOC)c(OCCOC)cc23)c1` [Erlotinib, reference compound] was tested. Which “CAF-CM-induced SK2 current” value (SK2 channel) did it give?
Its value is “suppressed”.
